Data: the supplement of paper PMC4862054

What follows are compounds tested on MFM-223 (assay: drug sensitivity score (DSS), CellTiter-Blue viability (DSS (AUC-based score)); higher = stronger viability inhibition; extreme values may be limits of the assay). Conditions: incubation time: 72 h.
Description: (§1)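 DSRT with the CellTiter-Blue (resazurin reduction) viability readout, fluorescence 560/590 nm, 72 h incubation. Plates were normalised to DMSO and benzethonium chloride controls. DSS is computed from the area under the fitted dose-response curve (5 or 9 concentrations).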

SMILES | drug sensitivity score
O=C(c1cc(Cc2n[nH]c(=O)c3ccccc23)ccc1F)N1CCN(C(=O)C2CC2)CC1 [Olaparib] | 0

The compounds below were run on SK-BR-3 in the same assay as above. Conditions: incubation time: 72 h.
Description: as §1

SMILES | drug sensitivity score
Cc1cc2c(F)c(Oc3ncnn4cc(OC[C@@H](C)O)c(C)c34)ccc2[nH]1 [Brivanib] | 0
CC(C)C[C@H](NC(=O)[C@H](CCc1ccccc1)NC(=O)CN1CCOCC1)C(=O)N[C@@H](Cc1ccccc1)C(=O)N[C@@H](CC(C)C)C(=O)[C@@]1(C)CO1 [Carfilzomib] | 23.7
Nc1nc(Cl)nc2c1ncn2[C@@H]1O[C@H](CO)[C@@H](O)[C@@H]1F [Clofarabine] | 15.3
C[C@@H]1C[C@H]2[C@@H]3CCC4=CC(=O)C=C[C@]4(C)[C@@]3(F)[C@@H](O)C[C@]2(C)[C@@]1(O)C(=O)CO [Dexamethasone] | 0
CC(C)C(=O)Nc1ccc([N+](=O)[O-])c(C(F)(F)F)c1 [Flutamide] | 0
COc1cc2c(Oc3ccc(NC(=O)C4(C(=O)Nc5ccc(F)cc5)CC4)cc3F)ccnc2cc1OCCCN1CCOCC1 [Foretinib] | 0.269
O=NN(CCCl)C(=O)NC1CCCCC1 [Lomustine] | 0
O=C(O)CC[C@H]1CC[C@@](c2cc(F)ccc2F)(S(=O)(=O)c2ccc(Cl)cc2)CC1 [MK-0752] | 0
NC1(c2ccc(-c3nc4ccn5c(=O)[nH]nc5c4cc3-c3ccccc3)cc2)CCC1 [MK-2206] | 6.38
NC(=O)c1cccc2cn(-c3ccc([C@@H]4CCCNC4)cc3)nc12 [MK-4827] | 0
N[C@@H](Cc1ccc(N(CCCl)CCCl)cc1)C(=O)O [Melphalan] | 0
O=C(c1cc(Cc2n[nH]c(=O)c3ccccc23)ccc1F)N1CCN(C(=O)C2CC2)CC1 [Olaparib] | 0.543

The compounds below were run on BT-474 (assay: drug sensitivity score (DSS), CellTox Green (DSS (AUC-based score)); higher = stronger drug effect (viability inhibition or cytotoxicity); extreme values may be limits of the assay). Conditions: incubation time: 72 h.
Summary of the method: (§2)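 Plates with 384 wells held compound at 5 concentrations in 10-fold steps over a 10,000-fold range specific to each compound. Breast cancer cell lines were added in 20 µl suspension and incubated 72 h, then read for CellTox Green and CellTiter-Glo signals, with each plate normalised to 0.1 % DMSO and a positive kill control. The drug sensitivity score is based on the area under the fitted dose-response curve.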

SMILES | drug sensitivity score
Cc1cc2c(F)c(Oc3ncnn4cc(OC[C@@H](C)O)c(C)c34)ccc2[nH]1 [Brivanib] | 0
CC(C)C[C@H](NC(=O)[C@H](CCc1ccccc1)NC(=O)CN1CCOCC1)C(=O)N[C@@H](Cc1ccccc1)C(=O)N[C@@H](CC(C)C)C(=O)[C@@]1(C)CO1 [Carfilzomib] | 8.3
Nc1nc(Cl)nc2c1ncn2[C@@H]1O[C@H](CO)[C@@H](O)[C@@H]1F [Clofarabine] | 0
C[C@@H]1C[C@H]2[C@@H]3CCC4=CC(=O)C=C[C@]4(C)[C@@]3(F)[C@@H](O)C[C@]2(C)[C@@]1(O)C(=O)CO [Dexamethasone] | 0
CC(C)C(=O)Nc1ccc([N+](=O)[O-])c(C(F)(F)F)c1 [Flutamide] | 0
COc1cc2c(Oc3ccc(NC(=O)C4(C(=O)Nc5ccc(F)cc5)CC4)cc3F)ccnc2cc1OCCCN1CCOCC1 [Foretinib] | 0
O=NN(CCCl)C(=O)NC1CCCCC1 [Lomustine] | 0
O=C(O)CC[C@H]1CC[C@@](c2cc(F)ccc2F)(S(=O)(=O)c2ccc(Cl)cc2)CC1 [MK-0752] | 0
NC1(c2ccc(-c3nc4ccn5c(=O)[nH]nc5c4cc3-c3ccccc3)cc2)CCC1 [MK-2206] | 0
NC(=O)c1cccc2cn(-c3ccc([C@@H]4CCCNC4)cc3)nc12 [MK-4827] | 0
N[C@@H](Cc1ccc(N(CCCl)CCCl)cc1)C(=O)O [Melphalan] | 18.1
O=C(c1cc(Cc2n[nH]c(=O)c3ccccc23)ccc1F)N1CCN(C(=O)C2CC2)CC1 [Olaparib] | 0

What follows are compounds tested on BT-549 in the same assay as above. Conditions: incubation time: 72 h.
Summary of the method: as §2

SMILES | drug sensitivity score
Cc1cc2c(F)c(Oc3ncnn4cc(OC[C@@H](C)O)c(C)c34)ccc2[nH]1 [Brivanib] | 0
CC(C)C[C@H](NC(=O)[C@H](CCc1ccccc1)NC(=O)CN1CCOCC1)C(=O)N[C@@H](Cc1ccccc1)C(=O)N[C@@H](CC(C)C)C(=O)[C@@]1(C)CO1 [Carfilzomib] | 8.43
Nc1nc(Cl)nc2c1ncn2[C@@H]1O[C@H](CO)[C@@H](O)[C@@H]1F [Clofarabine] | 0
C[C@@H]1C[C@H]2[C@@H]3CCC4=CC(=O)C=C[C@]4(C)[C@@]3(F)[C@@H](O)C[C@]2(C)[C@@]1(O)C(=O)CO [Dexamethasone] | 0
CC(C)C(=O)Nc1ccc([N+](=O)[O-])c(C(F)(F)F)c1 [Flutamide] | 0
COc1cc2c(Oc3ccc(NC(=O)C4(C(=O)Nc5ccc(F)cc5)CC4)cc3F)ccnc2cc1OCCCN1CCOCC1 [Foretinib] | 0
O=NN(CCCl)C(=O)NC1CCCCC1 [Lomustine] | 0
O=C(O)CC[C@H]1CC[C@@](c2cc(F)ccc2F)(S(=O)(=O)c2ccc(Cl)cc2)CC1 [MK-0752] | 0
NC1(c2ccc(-c3nc4ccn5c(=O)[nH]nc5c4cc3-c3ccccc3)cc2)CCC1 [MK-2206] | 0
NC(=O)c1cccc2cn(-c3ccc([C@@H]4CCCNC4)cc3)nc12 [MK-4827] | 0
N[C@@H](Cc1ccc(N(CCCl)CCCl)cc1)C(=O)O [Melphalan] | 13.4
O=C(c1cc(Cc2n[nH]c(=O)c3ccccc23)ccc1F)N1CCN(C(=O)C2CC2)CC1 [Olaparib] | 0

The compounds below were run on CAL-51 in the same assay as above. Conditions: incubation time: 72 h.
Summary of the method: as §2

SMILES | drug sensitivity score
Cc1cc2c(F)c(Oc3ncnn4cc(OC[C@@H](C)O)c(C)c34)ccc2[nH]1 [Brivanib] | 0
CC(C)C[C@H](NC(=O)[C@H](CCc1ccccc1)NC(=O)CN1CCOCC1)C(=O)N[C@@H](Cc1ccccc1)C(=O)N[C@@H](CC(C)C)C(=O)[C@@]1(C)CO1 [Carfilzomib] | 24.4
Nc1nc(Cl)nc2c1ncn2[C@@H]1O[C@H](CO)[C@@H](O)[C@@H]1F [Clofarabine] | 16.7
C[C@@H]1C[C@H]2[C@@H]3CCC4=CC(=O)C=C[C@]4(C)[C@@]3(F)[C@@H](O)C[C@]2(C)[C@@]1(O)C(=O)CO [Dexamethasone] | 0
CC(C)C(=O)Nc1ccc([N+](=O)[O-])c(C(F)(F)F)c1 [Flutamide] | 0
COc1cc2c(Oc3ccc(NC(=O)C4(C(=O)Nc5ccc(F)cc5)CC4)cc3F)ccnc2cc1OCCCN1CCOCC1 [Foretinib] | 4.29
O=NN(CCCl)C(=O)NC1CCCCC1 [Lomustine] | 0
O=C(O)CC[C@H]1CC[C@@](c2cc(F)ccc2F)(S(=O)(=O)c2ccc(Cl)cc2)CC1 [MK-0752] | 0
NC1(c2ccc(-c3nc4ccn5c(=O)[nH]nc5c4cc3-c3ccccc3)cc2)CCC1 [MK-2206] | 0
NC(=O)c1cccc2cn(-c3ccc([C@@H]4CCCNC4)cc3)nc12 [MK-4827] | 3.35
N[C@@H](Cc1ccc(N(CCCl)CCCl)cc1)C(=O)O [Melphalan] | 21.7
O=C(c1cc(Cc2n[nH]c(=O)c3ccccc23)ccc1F)N1CCN(C(=O)C2CC2)CC1 [Olaparib] | 3.38

What follows are compounds tested on DU-4475 in the same assay as above. Conditions: incubation time: 72 h.
Summary of the method: as §2

SMILES | drug sensitivity score
Cc1cc2c(F)c(Oc3ncnn4cc(OC[C@@H](C)O)c(C)c34)ccc2[nH]1 [Brivanib] | 0
CC(C)C[C@H](NC(=O)[C@H](CCc1ccccc1)NC(=O)CN1CCOCC1)C(=O)N[C@@H](Cc1ccccc1)C(=O)N[C@@H](CC(C)C)C(=O)[C@@]1(C)CO1 [Carfilzomib] | 0
Nc1nc(Cl)nc2c1ncn2[C@@H]1O[C@H](CO)[C@@H](O)[C@@H]1F [Clofarabine] | 0
C[C@@H]1C[C@H]2[C@@H]3CCC4=CC(=O)C=C[C@]4(C)[C@@]3(F)[C@@H](O)C[C@]2(C)[C@@]1(O)C(=O)CO [Dexamethasone] | 0
CC(C)C(=O)Nc1ccc([N+](=O)[O-])c(C(F)(F)F)c1 [Flutamide] | 0
COc1cc2c(Oc3ccc(NC(=O)C4(C(=O)Nc5ccc(F)cc5)CC4)cc3F)ccnc2cc1OCCCN1CCOCC1 [Foretinib] | 0
O=NN(CCCl)C(=O)NC1CCCCC1 [Lomustine] | 0
O=C(O)CC[C@H]1CC[C@@](c2cc(F)ccc2F)(S(=O)(=O)c2ccc(Cl)cc2)CC1 [MK-0752] | 0
NC1(c2ccc(-c3nc4ccn5c(=O)[nH]nc5c4cc3-c3ccccc3)cc2)CCC1 [MK-2206] | 0
NC(=O)c1cccc2cn(-c3ccc([C@@H]4CCCNC4)cc3)nc12 [MK-4827] | 0
N[C@@H](Cc1ccc(N(CCCl)CCCl)cc1)C(=O)O [Melphalan] | 11.5
O=C(c1cc(Cc2n[nH]c(=O)c3ccccc23)ccc1F)N1CCN(C(=O)C2CC2)CC1 [Olaparib] | 0

The compounds below were run on HCC1599 in the same assay as above. Conditions: incubation time: 72 h.
Summary of the method: as §2

SMILES | drug sensitivity score
Cc1cc2c(F)c(Oc3ncnn4cc(OC[C@@H](C)O)c(C)c34)ccc2[nH]1 [Brivanib] | 0
CC(C)C[C@H](NC(=O)[C@H](CCc1ccccc1)NC(=O)CN1CCOCC1)C(=O)N[C@@H](Cc1ccccc1)C(=O)N[C@@H](CC(C)C)C(=O)[C@@]1(C)CO1 [Carfilzomib] | 0
Nc1nc(Cl)nc2c1ncn2[C@@H]1O[C@H](CO)[C@@H](O)[C@@H]1F [Clofarabine] | 0
C[C@@H]1C[C@H]2[C@@H]3CCC4=CC(=O)C=C[C@]4(C)[C@@]3(F)[C@@H](O)C[C@]2(C)[C@@]1(O)C(=O)CO [Dexamethasone] | 0
CC(C)C(=O)Nc1ccc([N+](=O)[O-])c(C(F)(F)F)c1 [Flutamide] | 0
COc1cc2c(Oc3ccc(NC(=O)C4(C(=O)Nc5ccc(F)cc5)CC4)cc3F)ccnc2cc1OCCCN1CCOCC1 [Foretinib] | 0
O=NN(CCCl)C(=O)NC1CCCCC1 [Lomustine] | 0
O=C(O)CC[C@H]1CC[C@@](c2cc(F)ccc2F)(S(=O)(=O)c2ccc(Cl)cc2)CC1 [MK-0752] | 0
NC1(c2ccc(-c3nc4ccn5c(=O)[nH]nc5c4cc3-c3ccccc3)cc2)CCC1 [MK-2206] | 0
NC(=O)c1cccc2cn(-c3ccc([C@@H]4CCCNC4)cc3)nc12 [MK-4827] | 0
N[C@@H](Cc1ccc(N(CCCl)CCCl)cc1)C(=O)O [Melphalan] | 11.8
O=C(c1cc(Cc2n[nH]c(=O)c3ccccc23)ccc1F)N1CCN(C(=O)C2CC2)CC1 [Olaparib] | 0

These compounds were tested on HCC1937 in the same assay as above. Conditions: incubation time: 72 h.
Summary of the method: as §2

SMILES | drug sensitivity score
Cc1cc2c(F)c(Oc3ncnn4cc(OC[C@@H](C)O)c(C)c34)ccc2[nH]1 [Brivanib] | 0
CC(C)C[C@H](NC(=O)[C@H](CCc1ccccc1)NC(=O)CN1CCOCC1)C(=O)N[C@@H](Cc1ccccc1)C(=O)N[C@@H](CC(C)C)C(=O)[C@@]1(C)CO1 [Carfilzomib] | 18.4
Nc1nc(Cl)nc2c1ncn2[C@@H]1O[C@H](CO)[C@@H](O)[C@@H]1F [Clofarabine] | 0
C[C@@H]1C[C@H]2[C@@H]3CCC4=CC(=O)C=C[C@]4(C)[C@@]3(F)[C@@H](O)C[C@]2(C)[C@@]1(O)C(=O)CO [Dexamethasone] | 0
